The term IC50 denotes the point on the concentration scale where inhibition reaches its midpoint. A high value points to weaker potency.

The target in one experiment is PI3K alpha (Homo sapiens (Human), UniProt P42336). Kind of experiment: Enzymatic PI3K alpha isoform inhibition (lipid kinase activity, Kinase-Glo luminescence). Format: biochemical. To be noted: Enzymatic assay. Summed up: (§1)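 IC50s derive from 4-parameter logistic fits of % inhibition across 8 concentrations (usually 10 to 0.003 μM). Lipid kinase reaction: PI3K (10 nM) plus phosphatidylinositol (5 μg/mL) started with 2 μM ATP, stopped near 50% ATP depletion; leftover ATP quantified by Kinase-Glo luminescence.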
(In general: Kinase-Glo measures the ATP left after a reaction by luminescence.)

Another experiment has as its target PI3K delta (Homo sapiens (Human), UniProt O00329). The experiment can be described thus: Enzymatic PI3K delta isoform inhibition (lipid kinase activity, Kinase-Glo luminescence). Type of experiment: biochemical. To be noted: Enzymatic assay. Summed up: as §1

Chain of PI3K delta (O00329 other isoform, or with tags, fused parts or gaps linker GGGGGG): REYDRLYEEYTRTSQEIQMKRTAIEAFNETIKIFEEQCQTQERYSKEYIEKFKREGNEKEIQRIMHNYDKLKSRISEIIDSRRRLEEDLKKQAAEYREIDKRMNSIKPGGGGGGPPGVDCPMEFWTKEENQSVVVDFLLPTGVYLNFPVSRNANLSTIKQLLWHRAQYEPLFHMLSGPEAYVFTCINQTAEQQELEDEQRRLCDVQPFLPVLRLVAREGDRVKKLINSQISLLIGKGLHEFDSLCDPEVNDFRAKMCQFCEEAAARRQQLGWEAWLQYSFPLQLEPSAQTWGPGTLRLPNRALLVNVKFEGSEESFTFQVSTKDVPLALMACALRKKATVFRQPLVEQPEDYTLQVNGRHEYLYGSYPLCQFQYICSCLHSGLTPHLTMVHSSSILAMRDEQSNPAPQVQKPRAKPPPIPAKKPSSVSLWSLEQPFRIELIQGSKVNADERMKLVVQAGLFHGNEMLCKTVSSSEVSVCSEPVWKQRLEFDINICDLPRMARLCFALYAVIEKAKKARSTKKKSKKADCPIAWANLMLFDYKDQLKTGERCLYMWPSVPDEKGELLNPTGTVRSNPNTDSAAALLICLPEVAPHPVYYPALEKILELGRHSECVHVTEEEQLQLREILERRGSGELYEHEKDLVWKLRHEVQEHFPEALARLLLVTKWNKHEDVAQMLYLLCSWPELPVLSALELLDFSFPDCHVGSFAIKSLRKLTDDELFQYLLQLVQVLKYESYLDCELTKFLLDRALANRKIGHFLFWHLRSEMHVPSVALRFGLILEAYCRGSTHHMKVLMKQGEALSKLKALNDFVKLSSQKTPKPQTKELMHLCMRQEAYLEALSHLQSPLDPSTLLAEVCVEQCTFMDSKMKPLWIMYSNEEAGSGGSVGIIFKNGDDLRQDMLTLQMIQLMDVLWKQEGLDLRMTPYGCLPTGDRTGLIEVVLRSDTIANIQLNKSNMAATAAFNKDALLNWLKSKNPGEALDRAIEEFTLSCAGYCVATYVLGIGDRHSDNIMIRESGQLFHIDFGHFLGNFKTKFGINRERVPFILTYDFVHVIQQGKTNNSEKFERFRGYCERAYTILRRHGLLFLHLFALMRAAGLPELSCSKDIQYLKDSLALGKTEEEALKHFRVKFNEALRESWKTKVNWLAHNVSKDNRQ
Chain of PI3K alpha (P42336 other isoform, or with tags, fused parts or gaps): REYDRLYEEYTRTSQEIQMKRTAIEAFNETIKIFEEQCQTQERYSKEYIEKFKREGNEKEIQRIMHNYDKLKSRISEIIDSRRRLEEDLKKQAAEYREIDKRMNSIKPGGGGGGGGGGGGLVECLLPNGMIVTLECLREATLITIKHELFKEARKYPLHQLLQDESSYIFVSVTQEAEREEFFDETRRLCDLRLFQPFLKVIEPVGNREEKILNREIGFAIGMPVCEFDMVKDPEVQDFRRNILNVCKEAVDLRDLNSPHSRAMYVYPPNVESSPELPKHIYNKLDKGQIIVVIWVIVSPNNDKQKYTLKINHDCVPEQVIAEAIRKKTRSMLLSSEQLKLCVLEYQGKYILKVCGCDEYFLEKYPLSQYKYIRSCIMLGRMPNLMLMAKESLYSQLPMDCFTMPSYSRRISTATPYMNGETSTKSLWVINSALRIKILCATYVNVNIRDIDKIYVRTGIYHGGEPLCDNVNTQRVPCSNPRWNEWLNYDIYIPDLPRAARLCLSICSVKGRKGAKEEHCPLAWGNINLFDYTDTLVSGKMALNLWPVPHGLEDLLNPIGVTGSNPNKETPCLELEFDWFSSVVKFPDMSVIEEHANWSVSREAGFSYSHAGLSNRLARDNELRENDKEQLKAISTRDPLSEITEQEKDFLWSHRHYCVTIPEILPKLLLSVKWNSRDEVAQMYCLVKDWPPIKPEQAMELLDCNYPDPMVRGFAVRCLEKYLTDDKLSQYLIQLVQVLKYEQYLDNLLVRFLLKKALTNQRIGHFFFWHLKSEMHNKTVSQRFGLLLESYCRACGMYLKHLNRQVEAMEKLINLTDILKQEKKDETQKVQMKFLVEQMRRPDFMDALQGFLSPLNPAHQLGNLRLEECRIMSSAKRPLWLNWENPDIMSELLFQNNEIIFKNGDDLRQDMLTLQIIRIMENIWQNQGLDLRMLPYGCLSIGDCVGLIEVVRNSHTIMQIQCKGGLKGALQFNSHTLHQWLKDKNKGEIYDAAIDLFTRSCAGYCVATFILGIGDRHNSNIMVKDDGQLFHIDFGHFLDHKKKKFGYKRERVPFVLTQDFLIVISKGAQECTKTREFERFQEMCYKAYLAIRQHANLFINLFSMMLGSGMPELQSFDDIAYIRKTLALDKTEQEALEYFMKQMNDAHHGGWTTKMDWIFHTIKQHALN

Regarding `COc1ncc(N2CCOc3ccc(O[C@H]4CCN(C(=O)C5CCS(=O)(=O)C5)C4)cc32)cc1Cl` (single isomer, unassigned) [Example H13], the IC50 is 387 nM against PI3K alpha and 9 nM against PI3K delta.

`CCC(=O)N1CC[C@H](Oc2ccc3c(c2)N(c2cncc(C#N)c2)CCO3)C1` [Example A32, 5-[6-((S)-1-Propionyl-pyrrolidin-3-yloxy)-2,3-dihydro-benzo[1,4]oxazin-4-yl]-nicotinonitrile]: the IC50 against PI3K alpha turned out to be 3200 nM; at PI3K delta it was 74 nM.

As for `COc1ncc(N2CCOc3ccc(O[C@H]4CCN(C(=O)c5cocn5)C4)cc32)cc1F` [Example B100, {(S)-3-[4-(5-Fluoro-6-methoxy-pyridin-3-yl)-3,4-dihydro-2H-benzo[1,4]oxazin-6-yloxy]-pyrrolidin-1-yl}-oxazol-4-yl-methanone], the IC50 was 567 nM on PI3K alpha and 14 nM against PI3K delta.

Regarding `Cc1cc(N2CCOc3ccc(O[C@H]4CCN(C(=O)C5CCOC5)C4)cc32)cnc1S(C)(=O)=O` (stereo partly drawn) [Example B53, {(S)-3-[4-(6-Methanesulfonyl-5-methyl-pyridin-3-yl)-3,4-dihydro-2H-benzo[1,4]oxazin-6-yloxy]-pyrrolidin-1-yl}-(tetrahydro-furan-3-yl)-methanone], the IC50 stood at 343 nM at PI3K alpha and 4.5 nM against PI3K delta.

Regarding `CS(=O)(=O)c1ncc(N2CCOc3ccc(O[C@H]4CCN(C(=O)C5CCOCC5)C4)cc32)cc1F` [Example B86, {(S)-3-[4-(5-Fluoro-6-methanesulfonyl-pyridin-3-yl)-3,4-dihydro-2H-benzo[1,4]oxazin-6-yloxy]-pyrrolidin-1-yl}-(tetrahydro-pyran-4-yl)-methanone], the IC50 against PI3K alpha came to 6630 nM; on PI3K delta, 61 nM.

Turning to `COc1ncc(N2CCOc3ccc(O[C@H]4CCN(C(=O)C5CCS(=O)(=O)CC5)C4)cc32)cc1C#N` [Example D16, 5-{6-[(S)-1-(1,1-Dioxo-hexahydro-1lambda*6*-thiopyran-4-carbonyl)-pyrrolidin-3-yloxy]-2,3-dihydro-benzo[1,4]oxazin-4-yl}-2-methoxy-nicotinonitrile], the IC50 turned out to be 503 nM against PI3K alpha and 7 nM against PI3K delta.

Consider `COc1ncc(N2CC(C)Oc3ccc(O[C@H]4CCN(C(=O)C5CCOCC5)C4)cc32)cc1C#N` (stereo partly drawn) [Example O1, 2-Methoxy-5-{2-methyl-6-[(S)-1-(tetrahydro-pyran-4-carbonyl)-pyrrolidin-3-yloxy]-2,3-dihydro-benzo[1,4]oxazin-4-yl}-nicotinonitrile], for which the concentration for half-maximal inhibition (IC50) against PI3K alpha was 4570 nM; on PI3K delta, 53 nM.

`COc1cc(N2CCOc3ccc(O[C@H]4CCN(C(=O)C5CCOCC5)C4)cc32)cnc1S(C)(=O)=O` [Example B9, {(S)-3-[4-(6-Methanesulfonyl-5-methoxy-pyridin-3-yl)-3,4-dihydro-2H-benzo[1,4]oxazin-6-yloxy]-pyrrolidin-1-yl}-(tetrahydro-pyran-4-yl)-methanone]: the results for the half-inhibitory concentration (IC50) on PI3K alpha and at PI3K delta were 1770 nM and 78 nM, respectively.

As to `COc1ncc(N2CCOc3ccc(O[C@H]4CCN(C(=O)C5CCOCC5)C4)cc32)cc1C(F)F` [Example B120, {(S)-3-[4-(5-Difluoromethyl-6-methoxy-pyridin-3-yl)-3,4-dihydro-2H-benzo[1,4]oxazin-6-yloxy]-pyrrolidin-1-yl}-(tetrahydro-pyran-4-yl)-methanone], the IC50 at PI3K alpha was found to be 88 nM; on PI3K delta, 6 nM.

With `COc1ncc(N2CCOc3ccc(O[C@H]4CCN(C(=O)c5cncnc5)C4)cc32)cc1C#N` [Example C13, 2-Methoxy-5-{6-[(S)-1-(pyrimidine-5-carbonyl)-pyrrolidin-3-yloxy]-2,3-dihydro-benzo[1,4]oxazin-4-yl}-nicotinonitrile], the IC50 against PI3K alpha amounted to 667 nM; against PI3K delta, 77 nM.

For the molecule `Cc1cc(N2CCOc3ccc(O[C@H]4CCN(C(=O)C5CC5)C4)cc32)cnc1S(C)(=O)=O` [Example B80, Cyclopropyl-{(S)-3-[4-(6-methanesulfonyl-5-methyl-pyridin-3-yl)-3,4-dihydro-2H-benzo[1,4]oxazin-6-yloxy]-pyrrolidin-1-yl}-methanone], the results for the IC50 against PI3K alpha and against PI3K delta were 295 nM and 4 nM, respectively.

In the case of `COCC(=O)N1CC[C@H](Oc2ccc3c(c2)N(c2cnc(S(C)(=O)=O)c(C)c2)CCO3)C1` [Example B32, 1-{(S)-3-[4-(6-Methanesulfonyl-5-methyl-pyridin-3-yl)-3,4-dihydro-2H-benzo[1,4]oxazin-6-yloxy]-pyrrolidin-1-yl}-2-methoxy-ethanone], the IC50 turned out to be 369 nM on PI3K alpha and 36 nM at PI3K delta.

Turning to `CS(=O)(=O)c1ncc(N2CCOc3ccc(O[C@H]4CCN(C(=O)C5CCOCC5)C4)cc32)cc1CF` [Example B71, {(S)-3-[4-(5-Fluoromethyl-6-methanesulfonyl-pyridin-3-yl)-3,4-dihydro-2H-benzo[1,4]oxazin-6-yloxy]-pyrrolidin-1-yl}-(tetrahydro-pyran-4-yl)-methanone], the half-inhibitory concentration (IC50) worked out at 360 nM against PI3K alpha and 5.5 nM against PI3K delta.

Take `COc1ncc(N2CCOc3cnc(O[C@@H]4CCN(C(=O)C5CCS(=O)(=O)CC5)C4)cc32)cc1C` [Example G2, (1,1-Dioxo-hexahydro-1lambda*6*-thiopyran-4-yl)-{(R)-3-[1-(6-methoxy-5-methyl-pyridin-3-yl)-2,3-dihydro-1H-pyrido[3,4-b][1,4]oxazin-7-yloxy]-pyrrolidin-1-yl}-methanone]: the IC50 against PI3K alpha is 1200 nM; against PI3K delta, 207 nM.

As for `CCC(=O)N1CC[C@H](Oc2ccc3c(c2)N(c2cncc(S(=O)(=O)N(C)OC)c2)CCO3)C1` [Example A30, 5-[6-((S)-1-Propionyl-pyrrolidin-3-yloxy)-2,3-dihydro-benzo[1,4]oxazin-4-yl]-pyridine-3-sulfonic acid methoxy-methyl-amide], the results for the IC50 on PI3K alpha and at PI3K delta were 260 nM and 31 nM, respectively.

Turning to `COc1ncc(N2CCOc3cnc(O[C@H]4CCN(C(=O)c5cn6ccsc6n5)C4)cc32)cc1C(F)(F)F` [Example G1, Imidazo[2,1-b]thiazol-6-yl-{(S)-3-[1-(6-methoxy-5-trifluoromethyl-pyridin-3-yl)-2,3-dihydro-1H-pyrido[3,4-b][1,4]oxazin-7-yloxy]-pyrrolidin-1-yl}-methanone], the IC50 stood at 49 nM against PI3K alpha and 17 nM on PI3K delta.

On to `COc1ncc(N2CCOc3ccc(O[C@H]4CCN(C(=O)c5ccncc5)C4)cc32)cc1C#N` [Example C17, 2-Methoxy-5-{6-[(S)-1-(pyridine-4-carbonyl)-pyrrolidin-3-yloxy]-2,3-dihydro-benzo[1,4]oxazin-4-yl}-nicotinonitrile], for which the concentration for half-maximal inhibition (IC50) on PI3K alpha is 358 nM; at PI3K delta, 8 nM.

With `COc1ncc(N2CCOc3ccc(O[C@H]4CCN(C(=O)CC#N)C4)cc32)cc1Cl` [Example B109, 3-{(S)-3-[4-(5-Chloro-6-methoxy-pyridin-3-yl)-3,4-dihydro-2H-benzo[1,4]oxazin-6-yloxy]-pyrrolidin-1-yl}-3-oxo-propionitrile], the IC50 was 118 nM against PI3K alpha and less than 3 nM at PI3K delta.

Turning to `COc1ncc(N2CCOc3ccc(O[C@H]4CCN(C(=O)C5COCCO5)C4)cc32)cc1C#N` (stereo partly drawn) [Example C24, 5-{6-[(S)-1-([1,4]Dioxane-2-carbonyl)-pyrrolidin-3-yloxy]-2,3-dihydro-benzo[1,4]oxazin-4-yl}-2-methoxy-nicotinonitrile], the IC50 was 560 nM against PI3K alpha and 3 nM against PI3K delta.

Turning to `COc1cc(N2CCOc3ccc(O[C@H]4CCN(C(=O)c5cn(C)cn5)C4)cc32)cnc1OC` [Example B48, {(S)-3-[4-(5,6-Dimethoxy-pyridin-3-yl)-3,4-dihydro-2H-benzo[1,4]oxazin-6-yloxy]-pyrrolidin-1-yl}-(1-methyl-1H-imidazol-4-yl)-methanone], the IC50 on PI3K alpha came to 109 nM; against PI3K delta, 7 nM.

Regarding `COc1ncc(N2CCOc3ccc(O[C@H]4CCN(C(=O)C5CCS(=O)(=O)CC5)C4)cc32)cc1Cl` [Example B12, {(S)-3-[4-(5-Chloro-6-methoxy-pyridin-3-yl)-3,4-dihydro-2H-benzo[1,4]oxazin-6-yloxy]-pyrrolidin-1-yl}-(1,1-dioxo-hexahydro-1lambda*6*-thiopyran-4-yl)-methanone], the IC50 against PI3K alpha came to 365 nM; against PI3K delta, 11 nM.

For `COc1cc(N2CCOc3ccc(O[C@H]4CCN(C(=O)C5CCOCC5)C4)cc32)ccn1` [Example A22, {(S)-3-[4-(2-Methoxy-pyridin-4-yl)-3,4-dihydro-2H-benzo[1,4]oxazin-6-yloxy]-pyrrolidin-1-yl}-(tetrahydro-pyran-4-yl)-methanone], the IC50 against PI3K alpha turned out to be 757 nM; against PI3K delta, 21 nM.

`CN(C)S(=O)(=O)c1cncc(N2CCOc3ccc(O[C@H]4CCN(C(=O)C5CCOCC5)C4)cc32)c1` [Example A2, 5-{6-[(S)-1-(Tetrahydro-pyran-4-carbonyl)-pyrrolidin-3-yloxy]-2,3-dihydro-benzo[1,4]oxazin-4-yl}-pyridine-3-sulfonic acid dimethylamide]: the IC50 at PI3K alpha worked out at 47 nM; on PI3K delta, 6 nM.

In the case of `Cc1cc(N2CCOc3ccc(O[C@H]4CCN(C(=O)c5cocn5)C4)cc32)cnc1S(C)(=O)=O` [Example B24, {(S)-3-[4-(6-Methanesulfonyl-5-methyl-pyridin-3-yl)-3,4-dihydro-2H-benzo[1,4]oxazin-6-yloxy]-pyrrolidin-1-yl}-oxazol-4-yl-methanone], the IC50 at PI3K alpha came to 212 nM; on PI3K delta, 8 nM.

For `COCC(=O)N1CC[C@H](Oc2ccc3c(c2)N(c2cnc(OC)c(F)c2)CCO3)C1` [Example B99, 1-{(S)-3-[4-(5-Fluoro-6-methoxy-pyridin-3-yl)-3,4-dihydro-2H-benzo[1,4]oxazin-6-yloxy]-pyrrolidin-1-yl}-2-methoxy-ethanone], the IC50 on PI3K alpha amounted to 302 nM; at PI3K delta, 57 nM.

The values above are taken from patent US9539260B2, “Dihydro-benzo-oxazine and dihydro-pyrido-oxazine derivatives” (Novartis AG, priority 2012, dated 2017).
